Measured values from ChEMBL document CHEMBL1201862, “PubChem BioAssay data set” (2004).
Activity calls are given as the source filed them.

Experiments:
[1] = HEK293 cell cytotoxicity, dose response, cytotoxicity control, cherry-picks, set 5 (AID 1053117); format: functional, cell-based
[2] = inhibitors of fibronectin matrix deposition, dose response, AH1F cells, Alexa488-FN fluorescence, cherry-picks (AID 1035475); format: functional, cell-based
[3] = system: HeLa; experiment: HeLa cell cytotoxicity, dose response, cytotoxicity control, ATP luminescence, cherry-pick samples (AID 687004); format: functional, cell-based; conditions: Homo sapiens
[4] = system: HEK293; experiment: HEK293T cell cytotoxicity, dose response, cytotoxicity control, ATP luminescence, cherry-pick samples (AID 687005); format: functional, cell-based; conditions: Homo sapiens;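 note: cells exposed to compound for 48 hours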
[5] = HEK293 Cytotoxicity Assay Measured in Cell-Based System Using Plate Reader - 7071-01_Inhibitor_Dose_CherryPick_Activity_Set2.; format: functional
[6] = target: Major prion protein (Homo sapiens, UniProt P04156); format: functional, cell-based
[7] = cells
[8] = target: Paired box protein Pax-8 (Homo sapiens, UniProt Q06710); experiment: inhibitors of PAX8-driven TPO luciferase reporter, dose response, RMG-I cells, cherry-pick (AID 687027); format: functional, cell-based;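 note: luciferase reporter driven by Pax8 target thyroperoxidase promoter measured by SteadyGlo luminescence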
[9] = IOSE-T80 ovarian epithelial cell cytotoxicity, dose response, cytotoxicity control for PAX8 inhibitor project, plate reader, dry powder samples (AID 743045); format: functional, cell-based
[10] = inhibitors of PGC1a acetylation in cells, dose response, cell-based, cherry-picked samples (AID 720514); format: functional;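 note: potency may reflect raised or lowered acetylation signal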
[11] = NIH:OVCAR-3 ovarian cancer cell cytotoxicity, dose response, PAX8 inhibitor project, plate reader, dry powder samples (AID 743044); format: functional, cell-based
[12] = IGROV1 ovarian cancer cell cytotoxicity, dose response, PAX8 inhibitor project, plate reader, dry powder samples (AID 743043); format: functional, cell-based; conditions: IGROV-1
[13] = non-specific cell cytotoxicity, dose response, cytotoxicity control for PAX8 inhibitor project, plate reader, dry powder samples (AID 743021); format: functional, cell-based
[14] = cytotoxicity in OVCAR8 ovarian cancer cells, dose response, PAX8 project, cell-based, plate reader, dry powder samples (AID 743197); format: functional; conditions: OVCAR-8
[15] = P. falciparum Dd2 growth inhibitors, dose response, SYBR Green, cherry-picked samples (AID 1159567); format: functional, cell-based
[16] = HepG2 cell cytotoxicity, dose response, cytotoxicity control, cherry-picked samples (AID 1159577); format: functional, cell-based
[17] = inhibitors of TNFa-stimulated NF-kB luciferase reporter, dose response, selectivity assay for EBV LMP1 NF-kB inhibitor project, HEK293 LMP1 reporter cells, dry powder, set 2 (AID 624369); format: functional
[18] = inhibitors of LMP1-driven NF-kB reporter, dose response, cell-based, EBV LMP1, luciferase, dry powder, set 2 (AID 624361); format: functional
[19] = HepG2 cell cytotoxicity, dose response, cytotoxicity control, CellTiter-Glo luminescence, cherry-pick, set 2 (AID 743395); format: functional
[20] = HepG2 cell cytotoxicity, dose response, cytotoxicity control, cherry-picks, set 5 (AID 1053118); format: functional, cell-based
[21] = HEK293T cytotoxicity, dose response, cytotoxicity control for miR-122 modulator project, cell-based, inhibitor set, cherry-pick, set 2 (AID 720697); format: functional

CN1c2ccc(-c3ccccc3)cc2[C@H]2[C@H](CCN2C(=O)CN2CCOCC2)[C@@H]1CO
AC50 [1]: > 52 µM (inactive)
AC50 [2]: > 70 µM (inactive)

C[C@@H]1CN([C@@H](C)CO)S(=O)(=O)c2ccc(-c3ccccc3)cc2O[C@H]1CN(C)C(=O)C1CCCCC1
AC50 [3]: > 52 µM (inactive)
AC50 [4]: 15.4 µM (active)
AC50 [5]: 15.4 µM (active)

Fc1cccc2sc(Nc3nc4c(F)cccc4s3)nc12
IC50 [6]: 8.31 µM (active)
IC50 [7]: > 138 µM (inactive)

Cc1cccc(-c2ccc([C@H]3[C@@H]4CN(C(=O)Nc5ccc(C(F)(F)F)cc5)C[C@H]3N4)cc2)c1
AC50 [8]: 8.8 µM (active)
AC50 [9]: 17 µM (active)
AC50 [10]: 4.51 µM (active)
AC50 [11]: 18.8 µM (active)
AC50 [12]: 33.2 µM (active)
AC50 [13]: 22.9 µM (active)
AC50 [14]: 25.6 µM (active)
AC50 [15]: 3.28 µM (active)
AC50 [16]: 9.26 µM (active)

Cc1cc(C(=O)Nc2ccc3c(c2)C(=O)N(C)[C@H]2CC[C@H](CC(=O)NCc4ccc(-c5ccccc5)cc4)O[C@H]2CO3)no1
AbsAC35 [17]: 62.14 µM
AbsAC35 [18]: 37.95 µM

COc1cc(NC(=O)c2csc(N)n2)cc(C(=O)Nc2cccc(C(F)(F)F)c2)c1.O=C(O)C(F)(F)F
AbsAC35_uM [19]: 51.31 µM

CO[C@@H]1CN(C)C(=O)c2ccc(NC(=O)c3ccc(-c4ccccc4)cc3)cc2OC[C@@H](C)NC[C@@H]1C
AC50 [20]: > 52 µM (inactive)
AC50 [15]: 3.9 µM (active)
AC50 [16]: 11.9 µM (active)

CN(C)C(=O)C[C@@H]1CC[C@@H]2[C@@H](COc3ccc(NC(=O)C4CC4)cc3C(=O)N2C)O1
AC50 [21]: 9.22 µM (active)
